# Measured values from paper PMC3914206.
# Legend:
# Type in all cases: binding
# Conditions in all cases: Compound Concentration 10 µM
# panel of 442 kinases [1] = target: T1, panel of 442 kinases (Homo sapiens, UniProt P10721, T670I/V559D)
# T1 construct: purchased KINOMEscan
# Excerpt: (§1) We assessed the selectivity of members of this scaffold using the KINOMEscan methodology across a near comprehensive panel of 442 kinases [[18,27]].
# panel of 442 kinases [2] = target: T2, panel of 442 kinases (Homo sapiens, UniProt P27448)
# T2 construct: purchased KINOMEscan
# Excerpt: as §1
# panel of 442 kinases [3] = target: T3, panel of 442 kinases (Homo sapiens, UniProt P09619)
# T3 construct: purchased KINOMEscan
# Excerpt: as §1
# panel of 442 kinases [4] = target: T4, panel of 442 kinases (Homo sapiens, UniProt P54764)
# T4 construct: purchased KINOMEscan
# Excerpt: as §1
# T1 sequence (P10721 26-976 V559D/T670I): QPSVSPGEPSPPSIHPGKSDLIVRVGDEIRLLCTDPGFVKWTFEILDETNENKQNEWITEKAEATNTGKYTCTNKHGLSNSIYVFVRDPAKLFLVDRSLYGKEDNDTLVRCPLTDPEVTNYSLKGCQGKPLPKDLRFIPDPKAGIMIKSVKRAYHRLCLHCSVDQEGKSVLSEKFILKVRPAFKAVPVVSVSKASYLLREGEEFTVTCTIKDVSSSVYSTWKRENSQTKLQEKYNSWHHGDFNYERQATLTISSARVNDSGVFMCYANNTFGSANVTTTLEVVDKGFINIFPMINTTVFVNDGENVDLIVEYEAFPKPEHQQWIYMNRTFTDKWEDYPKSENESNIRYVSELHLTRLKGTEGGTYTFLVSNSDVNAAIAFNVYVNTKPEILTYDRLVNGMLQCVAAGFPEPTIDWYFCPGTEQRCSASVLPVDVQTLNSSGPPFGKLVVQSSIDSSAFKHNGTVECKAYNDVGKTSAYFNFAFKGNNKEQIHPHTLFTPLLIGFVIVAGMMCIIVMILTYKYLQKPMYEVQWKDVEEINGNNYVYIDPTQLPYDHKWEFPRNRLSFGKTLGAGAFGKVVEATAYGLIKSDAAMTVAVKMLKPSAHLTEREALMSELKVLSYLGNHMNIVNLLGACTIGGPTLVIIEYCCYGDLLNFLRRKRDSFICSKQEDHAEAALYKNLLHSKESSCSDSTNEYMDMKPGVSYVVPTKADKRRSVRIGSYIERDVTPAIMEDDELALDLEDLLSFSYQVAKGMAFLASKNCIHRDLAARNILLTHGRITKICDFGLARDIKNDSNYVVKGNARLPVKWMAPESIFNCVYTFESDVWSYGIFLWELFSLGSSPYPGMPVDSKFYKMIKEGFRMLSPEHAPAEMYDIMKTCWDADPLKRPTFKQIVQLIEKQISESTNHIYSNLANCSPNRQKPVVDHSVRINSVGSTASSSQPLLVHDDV
# T3 sequence (P09619 33-1106): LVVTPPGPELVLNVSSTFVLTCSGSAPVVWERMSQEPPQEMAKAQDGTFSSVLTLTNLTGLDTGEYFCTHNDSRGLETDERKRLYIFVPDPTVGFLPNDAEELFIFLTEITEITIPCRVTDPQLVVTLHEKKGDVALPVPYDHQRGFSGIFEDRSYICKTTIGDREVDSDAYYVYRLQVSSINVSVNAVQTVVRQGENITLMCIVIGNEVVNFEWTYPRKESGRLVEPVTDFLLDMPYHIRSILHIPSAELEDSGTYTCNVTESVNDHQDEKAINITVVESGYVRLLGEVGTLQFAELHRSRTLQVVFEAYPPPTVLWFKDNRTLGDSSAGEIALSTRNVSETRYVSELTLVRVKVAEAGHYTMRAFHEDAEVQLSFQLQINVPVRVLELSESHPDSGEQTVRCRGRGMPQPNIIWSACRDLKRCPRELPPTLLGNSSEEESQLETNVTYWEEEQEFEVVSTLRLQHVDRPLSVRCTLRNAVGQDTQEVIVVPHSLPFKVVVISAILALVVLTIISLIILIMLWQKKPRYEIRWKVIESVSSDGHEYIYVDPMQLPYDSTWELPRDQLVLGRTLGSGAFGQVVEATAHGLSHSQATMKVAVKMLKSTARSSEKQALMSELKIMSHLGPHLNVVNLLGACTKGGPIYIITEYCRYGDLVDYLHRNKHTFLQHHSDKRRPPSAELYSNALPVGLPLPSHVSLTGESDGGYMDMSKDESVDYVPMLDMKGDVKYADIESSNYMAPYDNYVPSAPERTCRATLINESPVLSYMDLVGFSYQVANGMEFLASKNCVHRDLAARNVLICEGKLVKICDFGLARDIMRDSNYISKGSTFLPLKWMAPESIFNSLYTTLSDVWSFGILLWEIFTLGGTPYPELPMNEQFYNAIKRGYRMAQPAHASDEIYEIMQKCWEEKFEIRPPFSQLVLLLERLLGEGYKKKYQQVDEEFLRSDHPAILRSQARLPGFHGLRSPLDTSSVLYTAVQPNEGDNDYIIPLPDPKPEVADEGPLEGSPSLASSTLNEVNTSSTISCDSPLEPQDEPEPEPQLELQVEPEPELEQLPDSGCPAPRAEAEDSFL
# T2 sequence (P27448 whole entry): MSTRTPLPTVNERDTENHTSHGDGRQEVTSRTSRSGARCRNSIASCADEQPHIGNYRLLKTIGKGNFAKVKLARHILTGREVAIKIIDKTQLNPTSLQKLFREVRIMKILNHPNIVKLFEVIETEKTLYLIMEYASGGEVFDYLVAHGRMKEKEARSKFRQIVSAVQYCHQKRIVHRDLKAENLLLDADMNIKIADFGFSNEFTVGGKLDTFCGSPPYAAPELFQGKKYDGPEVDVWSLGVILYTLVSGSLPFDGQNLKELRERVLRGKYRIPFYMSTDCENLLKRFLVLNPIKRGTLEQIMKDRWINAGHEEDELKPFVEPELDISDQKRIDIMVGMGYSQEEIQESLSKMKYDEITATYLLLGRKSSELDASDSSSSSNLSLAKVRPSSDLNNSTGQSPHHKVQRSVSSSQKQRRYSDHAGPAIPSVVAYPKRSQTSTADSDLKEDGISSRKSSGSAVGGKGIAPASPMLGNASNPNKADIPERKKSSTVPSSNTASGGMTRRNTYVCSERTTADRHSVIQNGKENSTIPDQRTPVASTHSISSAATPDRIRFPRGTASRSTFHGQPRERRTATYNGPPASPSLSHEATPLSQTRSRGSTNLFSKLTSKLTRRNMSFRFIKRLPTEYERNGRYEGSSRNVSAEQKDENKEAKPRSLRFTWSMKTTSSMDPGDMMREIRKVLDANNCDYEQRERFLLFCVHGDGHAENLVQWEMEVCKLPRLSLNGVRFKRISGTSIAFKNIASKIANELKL
# T4 sequence (P54764 20-986): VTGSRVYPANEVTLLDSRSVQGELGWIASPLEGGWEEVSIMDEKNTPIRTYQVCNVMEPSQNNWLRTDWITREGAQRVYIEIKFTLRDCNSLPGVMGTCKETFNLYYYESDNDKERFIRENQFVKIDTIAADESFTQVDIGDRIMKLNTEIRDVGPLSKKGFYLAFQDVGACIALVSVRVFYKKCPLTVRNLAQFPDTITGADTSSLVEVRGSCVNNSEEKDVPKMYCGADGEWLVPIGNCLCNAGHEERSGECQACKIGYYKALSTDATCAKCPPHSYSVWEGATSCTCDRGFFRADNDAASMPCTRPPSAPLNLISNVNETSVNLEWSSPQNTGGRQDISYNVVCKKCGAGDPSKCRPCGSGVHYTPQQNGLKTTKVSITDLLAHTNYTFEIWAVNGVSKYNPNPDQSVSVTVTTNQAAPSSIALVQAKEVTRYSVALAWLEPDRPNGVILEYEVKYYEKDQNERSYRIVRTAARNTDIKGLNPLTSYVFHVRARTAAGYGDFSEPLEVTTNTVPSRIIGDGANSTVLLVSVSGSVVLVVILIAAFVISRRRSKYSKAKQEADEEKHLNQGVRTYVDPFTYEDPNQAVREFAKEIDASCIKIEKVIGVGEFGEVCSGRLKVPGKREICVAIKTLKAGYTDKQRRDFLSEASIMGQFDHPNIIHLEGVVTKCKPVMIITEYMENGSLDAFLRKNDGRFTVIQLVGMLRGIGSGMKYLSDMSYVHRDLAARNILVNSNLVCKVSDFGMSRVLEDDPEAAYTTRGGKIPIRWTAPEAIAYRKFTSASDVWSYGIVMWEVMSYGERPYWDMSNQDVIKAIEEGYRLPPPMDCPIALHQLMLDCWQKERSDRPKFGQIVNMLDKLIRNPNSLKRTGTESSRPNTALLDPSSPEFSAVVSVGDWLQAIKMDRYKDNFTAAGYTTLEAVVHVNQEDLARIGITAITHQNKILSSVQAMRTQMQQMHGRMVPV
structure (smiles),measurement,setting,value
COc1cc(C(=O)N2CCC(N3CCN(C)CC3)CC2)ccc1Nc1ncc2c(n1)N(C)c1ccccc1C(=O)N2C [15 (LRRK2-IN-1)],"KINOMEscan: KIT(V559D,T670I)",panel of 442 kinases [1],81
same,KINOMEscan: MARK3,panel of 442 kinases [2],98
same,KINOMEscan: PDGFRB,panel of 442 kinases [3],100
same,KINOMEscan: EPHA4,panel of 442 kinases [4],89
COc1cc(C(=O)N2CCC(N3CCN(C)CC3)CC2)ccc1Nc1ncc2c(n1)N1CCc3cccc(c31)C(=O)N2C [Compound 24],KINOMEscan: PDGFRB,panel of 442 kinases [3],67
same,KINOMEscan: EPHA4,panel of 442 kinases [4],97
"COc1cc(C(=O)N2CCC(N3CCN(C)CC3)CC2)ccc1Nc1ncc2c(n1)N(C1CCCC1)c1ccccc1C(=O)N2C [Compound 25, 11-cyclopentyl-2-((2-methoxy-4-(4-(4-methylpiperazin-1-yl)piperidine-1-carbonyl)phenyl)amino)-5-methyl-5H-benzo[e]pyrimido[5,4-b][1,4]diazepin-6(11H)-one]","KINOMEscan: KIT(V559D,T670I)",panel of 442 kinases [1],80
same,KINOMEscan: MARK3,panel of 442 kinases [2],100
same,KINOMEscan: PDGFRB,panel of 442 kinases [3],83
same,KINOMEscan: EPHA4,panel of 442 kinases [4],100
CCOc1cc(C(=O)N2CCC(N3CCN(C)CC3)CC2)ccc1Nc1ncc2c(n1)N(C1CCCC1)c1ccccc1C(=O)N2C [Compound 26],"KINOMEscan: KIT(V559D,T670I)",panel of 442 kinases [1],100
same,KINOMEscan: MARK3,panel of 442 kinases [2],100
same,KINOMEscan: PDGFRB,panel of 442 kinases [3],100
same,KINOMEscan: EPHA4,panel of 442 kinases [4],100
